According to PMC4849654, “A High-Throughput Cell-Based Screen Identified a 2-[(E)-2-Phenylvinyl]-8-Quinolinol Core Structure That Activates p53” (PLoS ONE, 2016):

Key:
E6AP = target: T1, E6AP (Homo sapiens, UniProt Q05086); assay: Surface plasmon resonance binding to E6AP; settings: SPR, data not shown
T1 sequence (Q05086 1-875): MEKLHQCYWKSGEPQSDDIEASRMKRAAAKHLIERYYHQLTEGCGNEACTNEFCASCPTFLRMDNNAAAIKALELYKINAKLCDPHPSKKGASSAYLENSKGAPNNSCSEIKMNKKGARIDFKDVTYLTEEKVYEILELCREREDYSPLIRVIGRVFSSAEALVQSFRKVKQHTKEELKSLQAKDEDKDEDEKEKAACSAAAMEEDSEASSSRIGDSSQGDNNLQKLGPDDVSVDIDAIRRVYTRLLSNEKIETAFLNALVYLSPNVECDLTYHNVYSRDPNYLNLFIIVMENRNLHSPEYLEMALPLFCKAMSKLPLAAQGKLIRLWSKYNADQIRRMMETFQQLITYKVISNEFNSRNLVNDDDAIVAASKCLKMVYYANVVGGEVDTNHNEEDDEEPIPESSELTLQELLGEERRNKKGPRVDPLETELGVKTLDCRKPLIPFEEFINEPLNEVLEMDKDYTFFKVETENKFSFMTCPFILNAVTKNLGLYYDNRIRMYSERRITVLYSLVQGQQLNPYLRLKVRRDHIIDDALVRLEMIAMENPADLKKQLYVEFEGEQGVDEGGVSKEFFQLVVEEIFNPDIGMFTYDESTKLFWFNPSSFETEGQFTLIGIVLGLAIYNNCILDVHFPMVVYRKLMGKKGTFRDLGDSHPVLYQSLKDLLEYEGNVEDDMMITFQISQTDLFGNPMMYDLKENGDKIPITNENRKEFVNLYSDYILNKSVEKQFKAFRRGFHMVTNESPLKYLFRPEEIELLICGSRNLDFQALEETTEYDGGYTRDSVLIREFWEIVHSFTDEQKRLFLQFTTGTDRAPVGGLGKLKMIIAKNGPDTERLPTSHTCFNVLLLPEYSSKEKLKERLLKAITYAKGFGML
From the text: Free reactive amines were then blocked with ethanolamine.

siHA cells = assay: Cell viability (Cell Titer Glo), siHA; format: cell-based; settings: 48h
Method: (§1) For the viability assays, 20,000 C33a, HeLa, or siHA cells were plated in white 96 well flat bottom plates. The cells were treated with compounds at concentrations from 0.5 to 30 μM for 48 hrs. After incubation, Cell Titer Glo (Promega) was added to the cells and luminescence read in a Tecan II plate reader. For annexin V and PI staining, 500,000 C33a cells were treated with inhibitor for 24 hrs. The cells were stained with Annexin V-FITC and PI according to eBioscience manufacturer’s instructions and analyzed by flow cytometry.

MCF7 cells = assay: Cell viability, MCF7; format: cell-based; settings: MCF7, wild type p53
p73 = target: T2, p73 (Homo sapiens, UniProt O15350); assay: p73 nuclear accumulation by Western analysis; format: cell-based; settings: mutHCT116 cells, 6h
T2 construct: endogenous in cells; host or cells: HCT116 (p53-null mutHCT116 and wtHCT116)
T2 sequence (O15350 1-636): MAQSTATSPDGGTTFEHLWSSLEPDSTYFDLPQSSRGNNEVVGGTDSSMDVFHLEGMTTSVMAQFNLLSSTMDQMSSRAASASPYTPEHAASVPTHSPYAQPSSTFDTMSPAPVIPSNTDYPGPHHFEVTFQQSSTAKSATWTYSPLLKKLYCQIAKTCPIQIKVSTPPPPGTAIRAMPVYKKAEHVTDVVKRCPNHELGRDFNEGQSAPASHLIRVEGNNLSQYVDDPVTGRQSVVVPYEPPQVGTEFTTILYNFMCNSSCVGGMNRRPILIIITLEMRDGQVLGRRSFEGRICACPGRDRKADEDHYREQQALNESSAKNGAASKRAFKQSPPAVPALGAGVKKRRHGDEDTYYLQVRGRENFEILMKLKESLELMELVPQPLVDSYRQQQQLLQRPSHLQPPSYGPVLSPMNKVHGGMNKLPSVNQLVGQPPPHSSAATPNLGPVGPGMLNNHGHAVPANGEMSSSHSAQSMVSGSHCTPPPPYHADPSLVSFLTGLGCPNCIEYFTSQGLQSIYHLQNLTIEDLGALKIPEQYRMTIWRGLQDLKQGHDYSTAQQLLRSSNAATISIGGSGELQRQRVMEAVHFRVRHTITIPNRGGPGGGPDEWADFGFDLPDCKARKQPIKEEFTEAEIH

C33a cells [1] = assay: Annexin V/PI staining by flow cytometry; format: cell-based
Method: as §1

E6 = E6 (Human papillomavirus type 16, UniProt P03126); settings: SPR
Method: p53 or E6 (R&D systems) were suspended in 10 mM sodium acetate pH 5.0 and amine linked to a Biacore CM5 chip (GE systems). Free reactive amines were then blocked with ethanolamine. Compound 4 was diluted in HBS P buffer (GE systems) at concentrations 1–30 μM and run over the chip. The association time was monitored for 300s and disassociation time for 1000 sec. After each run, the chip was regenerated using 10 mM glycine pH 3.0. The sensograms were fit to a one-ligand model to determine the Ka and Kd.

[2] = test system: proteasome chymotrypsin-like activity; assay: Proteasome-Glo chymotrypsin-like activity; format: cell-based; settings: C33a cells, 2 hrs, 10 μM or 30 μM
C33a cells [3] = assay: Cell cycle distribution by PI staining; format: cell-based

Sequence of E6 (P03126 whole entry): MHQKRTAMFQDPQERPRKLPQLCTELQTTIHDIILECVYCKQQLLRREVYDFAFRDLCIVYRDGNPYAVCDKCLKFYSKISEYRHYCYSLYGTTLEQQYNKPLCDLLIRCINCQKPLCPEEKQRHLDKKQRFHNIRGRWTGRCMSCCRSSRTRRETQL

## COc1ccc(/C=C/c2ccc3cccc(O)c3n2)cc1OC [compound 4]
E6AP
  affinity for E6AP: did not have detectable affinity
siHA cells
  cell viability at 30 μM: decreased viability
MCF7 cells
  cell viability (Fig 5D): decreased viability
p73
  p73 nuclear accumulation: did not increase p73 nuclear accumulation
C33a cells [1]
  apoptotic and necrotic cells: increased both the number of apoptotic and necrotic cells
E6; E6 versus p53
  fold lesser affinity for E6 than for p53: 16 fold
E6; read-out: KD for E6, recombinant E6
  Kd: 3.2 ± 1 µM
[2]
  chymotrypsin-like proteasome activity: did not significantly reduce
C33a cells [3]
  cell cycle distribution: normal cell cycle distribution
